Data on 16 molecules can be found in patent US8609836B2, “4-aryl-2-anilino-pyrimidines” (Janssen Pharmaceutica NV, priority 2008, dated 2013).

For one assay, the target named is GSK3β (h) (Homo sapiens, UniProt P49841). Description: GSK-3β human kinase inhibition, SPA. Type of assay: biochemical. As to conditions: read-out: GSK3b pIC50 (converted). The method, boiled down:
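Scintillation proximity assay: GSK3β (1 μg/ml) with 1 μM biotinylated peptide, 1 μM ATP plus [γ-33P]ATP in Tris pH 7.4, MgCl2, DTT. 60 min at room temperature, stopped with EDTA and streptavidin PVT beads; phosphorylation read by Leadseeker imaging.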

A further assay concerns U87-MG. In words: Cellular proliferation assay (Alamar blue), U87-MG. The assay is classed as cell-based. As to conditions: Homo sapiens, U-87 MG; 10% FCS; 72 hours with compound; Alamar blue 6 h; read-out: U87-MG (cellular proliferation assay, Table 4) (converted). The method, boiled down: (§1)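 Cells seeded 24 h without compound, then exposed to compounds for 72 h in 10% FCS at 37 °C, 5% CO2. Viability read by Alamar blue (resazurin 9 μg/ml) fluorescence at 544/590 nm after 6 h (U87-MG) or 24 h (A2780, MDA-MB-231) or 4 h (HCT-116) dye incubation; effect expressed relative to control cells.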

The subject of the next assay is HCT-116. Description: Cellular proliferation assay (Alamar blue), HCT-116. Type of assay: cell-based. As to conditions: Homo sapiens, 10% FCS, 72 hours with compound, Alamar blue 4 h. In outline: as §1
Another assay has as its target PLK2 (h) (Homo sapiens, UniProt Q9NYY3). In words: PLK2 human kinase inhibition, SPA. The settings on record: read-out: PLK2 pIC50 (converted). Type of assay: biochemical. In outline:
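SPA read on Leadseeker: PLK2 (30 μg/ml) with 2 μM biotinylated peptide, 0.1 μM ATP plus 2 nM [γ-33P]ATP in 50 mM Hepes pH 8.0, 2 mM MnCl2, 1 mM DTT. Reaction ran 20 min at room temperature, then EDTA stop and streptavidin PVT beads.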

A further assay has as its target PLK4 (h) (Homo sapiens, UniProt O00444). Description: PLK-4 human kinase inhibition, scintillation proximity assay (SPA). The assay is classed as biochemical. The settings on record: read-out: PLK4 pIC50 (converted).
For a further assay, the target named is CDK1/CyclinB (h) (Homo sapiens, UniProt P06493). Description: CDK1/CyclinB human kinase inhibition, Invitrogen's FRET assay (Z'lyte). The settings on record: read-out: CDK1 pIC50 (converted). The assay is classed as biochemical. In outline: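 Z'lyte FRET assay: human CDK1/CyclinB (0.2 μg/ml) with 2 μM Ser/Thr peptide 12 and 10 μM ATP in 50 mM Hepes pH 7.5, MgCl2, EGTA, Brij-35, 60 min at room temperature. Protease development 60 min, then emission ratio 460/538 nm read with excitation at 390 nm.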

A further assay relates to MDA-MB-231. In words: Cellular proliferation assay (Alamar blue), MDA-MB-231. The assay is classed as cell-based. The settings on record: Homo sapiens, 10% FCS, 72 hours with compound, Alamar blue 24 h, read-out: MDA/MB231 (cellular proliferation assay, Table 4) (converted). The method, boiled down:
as §1
(In general: Resazurin is reduced to fluorescent resorufin, in cell work by metabolically active cells.)

In a further assay the test system is A2780. In words: Cellular proliferation assay (Alamar blue), A2780. The assay is classed as cell-based. The settings on record: Homo sapiens, 10% FCS, 72 hours with compound, Alamar blue 24 h, read-out: A2780 (cellular proliferation assay, Table 4) (converted). In outline: as §1
In the next assay the target is PLK1 T210D (h) (Homo sapiens, UniProt P53350, T210D). In words: PLK1 human kinase inhibition, SPA. The assay is classed as biochemical. As to conditions: read-out: PLK1 pIC50 (converted). In outline: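 Radiometric SPA with PLK1 T210D (0.125 ng/ml) in 50 mM Hepes pH 8.0, 2 mM MnCl2, 1 mM DTT, 2 μM biotinylated peptide, 0.1 μM ATP plus 2 nM [γ-33P]ATP. 40 min at room temperature, EDTA stop. Phosphorylated substrate captured on streptavidin PVT beads, scintillation imaged.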

Where only a bound is given, the exact number is not on record here.

PLK4 (h), sequence (O00444 whole entry): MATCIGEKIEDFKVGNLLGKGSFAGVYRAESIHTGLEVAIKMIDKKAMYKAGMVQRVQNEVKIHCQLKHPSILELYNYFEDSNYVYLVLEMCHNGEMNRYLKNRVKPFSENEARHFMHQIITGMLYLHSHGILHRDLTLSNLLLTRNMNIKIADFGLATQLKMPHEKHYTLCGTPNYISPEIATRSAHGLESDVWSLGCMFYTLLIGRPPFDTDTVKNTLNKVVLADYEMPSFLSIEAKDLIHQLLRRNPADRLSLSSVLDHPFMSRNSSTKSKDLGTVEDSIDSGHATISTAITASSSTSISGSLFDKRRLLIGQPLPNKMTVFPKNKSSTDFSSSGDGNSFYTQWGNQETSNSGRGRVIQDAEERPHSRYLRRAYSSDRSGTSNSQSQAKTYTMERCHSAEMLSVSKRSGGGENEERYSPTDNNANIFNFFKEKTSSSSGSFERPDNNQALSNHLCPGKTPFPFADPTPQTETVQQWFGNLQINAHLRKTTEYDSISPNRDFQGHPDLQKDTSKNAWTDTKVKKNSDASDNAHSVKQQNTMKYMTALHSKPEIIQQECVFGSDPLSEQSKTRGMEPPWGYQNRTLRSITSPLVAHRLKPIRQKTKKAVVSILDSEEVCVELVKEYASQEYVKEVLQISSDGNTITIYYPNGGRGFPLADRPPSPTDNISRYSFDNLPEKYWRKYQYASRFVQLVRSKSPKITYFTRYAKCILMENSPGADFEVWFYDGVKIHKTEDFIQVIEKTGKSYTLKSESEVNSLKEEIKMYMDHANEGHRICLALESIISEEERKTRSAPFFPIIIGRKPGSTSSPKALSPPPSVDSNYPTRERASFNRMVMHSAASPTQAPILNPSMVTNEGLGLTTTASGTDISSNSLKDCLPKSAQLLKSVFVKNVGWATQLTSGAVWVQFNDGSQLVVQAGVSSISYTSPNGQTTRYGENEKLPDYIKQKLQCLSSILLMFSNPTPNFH
PLK2 (h), sequence (Q9NYY3 whole entry): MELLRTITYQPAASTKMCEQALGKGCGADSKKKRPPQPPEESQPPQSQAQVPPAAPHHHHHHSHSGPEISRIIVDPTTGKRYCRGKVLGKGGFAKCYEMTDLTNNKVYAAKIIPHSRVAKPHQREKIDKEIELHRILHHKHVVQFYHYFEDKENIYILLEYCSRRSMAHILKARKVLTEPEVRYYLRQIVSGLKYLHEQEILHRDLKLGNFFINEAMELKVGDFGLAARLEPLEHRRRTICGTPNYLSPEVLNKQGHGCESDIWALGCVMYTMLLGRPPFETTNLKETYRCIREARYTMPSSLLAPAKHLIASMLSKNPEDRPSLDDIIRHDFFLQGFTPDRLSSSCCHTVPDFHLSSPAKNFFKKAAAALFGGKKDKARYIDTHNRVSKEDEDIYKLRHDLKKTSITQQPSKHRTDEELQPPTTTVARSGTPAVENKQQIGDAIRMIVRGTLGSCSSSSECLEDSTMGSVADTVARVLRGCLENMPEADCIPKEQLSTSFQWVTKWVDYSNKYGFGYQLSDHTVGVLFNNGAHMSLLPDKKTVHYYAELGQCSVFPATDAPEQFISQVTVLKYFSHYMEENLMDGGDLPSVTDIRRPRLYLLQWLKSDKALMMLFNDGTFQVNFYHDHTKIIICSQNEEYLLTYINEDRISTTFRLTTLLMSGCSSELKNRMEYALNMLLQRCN
CDK1/CyclinB (h), sequence (P06493 whole entry): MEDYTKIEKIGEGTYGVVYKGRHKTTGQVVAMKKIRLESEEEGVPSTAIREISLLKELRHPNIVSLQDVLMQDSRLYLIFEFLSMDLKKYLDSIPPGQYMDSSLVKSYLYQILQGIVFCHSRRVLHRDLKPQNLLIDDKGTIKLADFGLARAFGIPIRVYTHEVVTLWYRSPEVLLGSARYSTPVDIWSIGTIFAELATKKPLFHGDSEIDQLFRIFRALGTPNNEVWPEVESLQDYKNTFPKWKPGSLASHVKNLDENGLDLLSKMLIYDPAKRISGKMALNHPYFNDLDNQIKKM
CDK1/CyclinB (h), sequence (P14635 whole entry partner): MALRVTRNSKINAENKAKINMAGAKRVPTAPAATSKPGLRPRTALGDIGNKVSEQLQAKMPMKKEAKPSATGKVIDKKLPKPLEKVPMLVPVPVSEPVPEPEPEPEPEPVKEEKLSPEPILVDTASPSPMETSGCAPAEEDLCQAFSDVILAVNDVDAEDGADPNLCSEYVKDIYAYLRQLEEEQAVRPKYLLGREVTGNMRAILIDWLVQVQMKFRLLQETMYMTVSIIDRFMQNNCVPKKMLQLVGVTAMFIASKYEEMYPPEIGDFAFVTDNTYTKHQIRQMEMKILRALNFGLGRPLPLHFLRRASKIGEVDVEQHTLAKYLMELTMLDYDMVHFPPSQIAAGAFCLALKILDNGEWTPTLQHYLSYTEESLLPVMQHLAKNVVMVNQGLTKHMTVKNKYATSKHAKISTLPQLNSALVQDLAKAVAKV
PLK1 T210D (h), sequence (P53350 whole entry T210D): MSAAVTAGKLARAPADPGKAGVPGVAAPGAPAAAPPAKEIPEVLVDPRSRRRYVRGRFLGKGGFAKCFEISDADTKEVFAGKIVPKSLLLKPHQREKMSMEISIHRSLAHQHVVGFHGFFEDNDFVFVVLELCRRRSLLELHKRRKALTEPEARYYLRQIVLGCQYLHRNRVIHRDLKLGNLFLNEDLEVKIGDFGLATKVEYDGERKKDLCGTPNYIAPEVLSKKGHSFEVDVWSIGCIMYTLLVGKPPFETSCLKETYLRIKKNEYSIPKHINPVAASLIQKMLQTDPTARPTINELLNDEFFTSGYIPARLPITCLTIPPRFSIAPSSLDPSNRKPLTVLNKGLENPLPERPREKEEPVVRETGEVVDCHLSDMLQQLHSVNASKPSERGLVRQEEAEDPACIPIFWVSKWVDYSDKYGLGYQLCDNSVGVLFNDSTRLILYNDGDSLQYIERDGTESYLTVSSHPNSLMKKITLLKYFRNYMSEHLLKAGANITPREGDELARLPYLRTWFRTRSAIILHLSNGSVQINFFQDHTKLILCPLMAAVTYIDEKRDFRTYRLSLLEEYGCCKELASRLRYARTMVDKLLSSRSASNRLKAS
GSK3β (h), sequence (P49841 whole entry): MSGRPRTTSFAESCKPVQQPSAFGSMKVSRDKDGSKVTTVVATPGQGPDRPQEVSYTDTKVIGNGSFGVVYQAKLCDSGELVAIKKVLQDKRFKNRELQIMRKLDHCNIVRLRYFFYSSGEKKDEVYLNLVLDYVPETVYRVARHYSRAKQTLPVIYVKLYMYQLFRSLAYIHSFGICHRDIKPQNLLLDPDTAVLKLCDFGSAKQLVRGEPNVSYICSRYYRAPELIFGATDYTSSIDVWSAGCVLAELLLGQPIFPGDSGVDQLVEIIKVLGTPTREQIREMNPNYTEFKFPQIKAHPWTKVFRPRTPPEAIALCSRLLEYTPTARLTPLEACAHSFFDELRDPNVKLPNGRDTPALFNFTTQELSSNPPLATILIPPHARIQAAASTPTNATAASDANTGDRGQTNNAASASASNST

As to `O=C1NCc2cccc(c2)-c2ccnc(n2)Nc2ccc(N3CCOCC3)c(c2)CN2CCC1CC2` [Compound 95], the IC50 at GSK3β (h) was 3.72 µM; with U87-MG, greater than 10 µM; in the assay with HCT-116, greater than 10 µM; at PLK2 (h), greater than 10 µM; on PLK4 (h), 6.61 µM; on CDK1/CyclinB (h) it was 7.24 µM. Besides, the IC50 with MDA-MB-231, with A2780 and at PLK1 T210D (h) was greater than 10 µM in each case.

With `O=C1NCc2cc(ccc2N2CCOCC2)Nc2nccc(n2)-c2cccc(c2)CCCN2CCC[C@@H]12` [Compound 149], the IC50 on GSK3β (h) was 0.117 µM; with U87-MG, 0.251 µM; with HCT-116 it was 0.117 µM; on PLK2 (h), greater than 10 µM; at PLK4 (h), 0.813 µM; on CDK1/CyclinB (h) it was 0.00363 µM. The values for the IC50 in the assay with MDA-MB-231, in the assay on A2780 and at PLK1 T210D (h) were 0.501 µM, 0.245 µM and greater than 10 µM, respectively.

Regarding `O=C1NCc2cccc(c2)-c2ccnc(n2)Nc2cc(ccc2Cl)CN[C@H]1CO` [Compound 188], the IC50 was 6.61 µM on GSK3β (h); greater than 10 µM in the assay on U87-MG; greater than 10 µM with HCT-116; greater than 10 µM at PLK2 (h); 2.09 µM at PLK4 (h); 9.12 µM at CDK1/CyclinB (h). Further, the IC50 with MDA-MB-231, in the assay with A2780 and on PLK1 T210D (h) was greater than 10 µM in each case.

As for `COc1cc2cc(c1)Nc1nccc(n1)-c1ccc(cc1)CN(C)CCNC(=O)[C@H](CO)NC2` [Compound 109], the IC50 was 4.79 µM on GSK3β (h); 5.62 µM in the assay on U87-MG; 2.69 µM in the assay on HCT-116; greater than 10 µM at PLK2 (h); 0.741 µM on PLK4 (h); greater than 10 µM at CDK1/CyclinB (h). Moreover, the IC50 with MDA-MB-231, in the assay on A2780 and at PLK1 T210D (h) was greater than 10 µM in each case.

For `C[C@@H]1NCc2ccc(Cl)c(c2)Nc2nccc(n2)-c2cccc(c2)CNC1=O` [Compound 186], the IC50 on GSK3β (h) was greater than 10 µM; in the assay on U87-MG it was greater than 10 µM; with HCT-116, greater than 10 µM; on PLK2 (h), greater than 10 µM; at PLK4 (h) it was 1.02 µM; on CDK1/CyclinB (h) it was greater than 10 µM. Besides, the IC50 in the assay with MDA-MB-231, with A2780 and on PLK1 T210D (h) was greater than 10 µM throughout.

`O=C1NCc2cccc(c2)-c2ccnc(n2)Nc2cccc(c2)CN[C@H]1Cc1ccccc1` [Compound 185]: the IC50 on GSK3β (h) was 0.0275 µM; in the assay with U87-MG, 6.76 µM; in the assay on HCT-116, 6.92 µM; on PLK2 (h) it was greater than 10 µM; at PLK4 (h) it was 0.794 µM; at CDK1/CyclinB (h), 4.79 µM. In addition, the IC50 in the assay on MDA-MB-231, in the assay with A2780 and on PLK1 T210D (h) was greater than 10 µM throughout.

As for `O=C1NCc2cccc(c2)-c2ccnc(n2)Nc2ccc(cc2)CN[C@H]1Cc1ccccc1` [Compound 192], the IC50 at GSK3β (h), in the assay on U87-MG, in the assay with HCT-116, at PLK2 (h), at PLK4 (h) and on CDK1/CyclinB (h) was greater than 10 µM in each case. Besides, the IC50 in the assay on MDA-MB-231, in the assay with A2780 and at PLK1 T210D (h) was greater than 10 µM in each case.

Turning to `O=C1NCCNCc2ccc(cc2)-c2ccnc(n2)Nc2ccc(N3CCOCC3)c(c2)CN2CCC[C@@H]12` [Compound 157], the IC50 is 6.61 µM at GSK3β (h); greater than 10 µM in the assay with U87-MG; 6.46 µM in the assay on HCT-116; greater than 10 µM at PLK2 (h); 1.07 µM on PLK4 (h); greater than 10 µM on CDK1/CyclinB (h). Further, the IC50 is greater than 10 µM in the assay with MDA-MB-231, 6.46 µM in the assay with A2780 and greater than 10 µM at PLK1 T210D (h).

Consider `COc1cc2cc(c1)Nc1nccc(n1)-c1ccc(cc1)CN(C)CCNC(=O)[C@@H]1CCCN1C2` [Compound 158], for which the IC50 was greater than 10 µM on GSK3β (h); greater than 10 µM in the assay with U87-MG; greater than 10 µM in the assay with HCT-116; greater than 3.02 µM at PLK2 (h); 1.15 µM at PLK4 (h); 8.71 µM at CDK1/CyclinB (h). The IC50 with MDA-MB-231, in the assay on A2780 and on PLK1 T210D (h) was greater than 10 µM in each case.

Regarding `CN1CCNC(=O)[C@@H]2CCCN2Cc2cccc(c2)Nc2nccc(n2)-c2ccc(cc2)C1` [Compound 160], the IC50 is 5.5 µM on GSK3β (h); greater than 10 µM with U87-MG; greater than 10 µM with HCT-116; greater than 3.02 µM at PLK2 (h); 1.55 µM at PLK4 (h); greater than 10 µM at CDK1/CyclinB (h). For the same molecule, the IC50 with MDA-MB-231, in the assay on A2780 and on PLK1 T210D (h) was greater than 10 µM throughout.

On to `O=C1NCc2cccc(c2)-c2ccnc(n2)Nc2ccccc2CN2CCC[C@@H]12` [Compound 57], for which the IC50 on GSK3β (h), in the assay with U87-MG, with HCT-116, on PLK2 (h), at PLK4 (h) and at CDK1/CyclinB (h) was greater than 10 µM throughout. Moreover, the IC50 with MDA-MB-231, with A2780 and on PLK1 T210D (h) was greater than 10 µM in each case.

For `CC(C)(C)O[C@@H]1C[C@H]2C(=O)NCc3cccc(c3)-c3ccnc(n3)Nc3ccccc3CN2C1` [Compound 58], the IC50 on GSK3β (h), in the assay with U87-MG, with HCT-116, at PLK2 (h), at PLK4 (h) and at CDK1/CyclinB (h) was greater than 10 µM throughout. The IC50 in the assay on MDA-MB-231, with A2780 and on PLK1 T210D (h) was greater than 10 µM throughout.

In the case of `O=C1NCc2cccc(c2)-c2ccnc(n2)Nc2ccc(N3CCOCC3)c(c2)CN[C@H]1Cc1ccccc1` [Compound 18], the IC50 on GSK3β (h) was 0.389 µM; in the assay on U87-MG, 6.76 µM; in the assay with HCT-116, 6.76 µM; on PLK2 (h), greater than 10 µM; on PLK4 (h), 0.646 µM; at CDK1/CyclinB (h) it was greater than 10 µM. Moreover, the IC50 is greater than 10 µM in the assay with MDA-MB-231, 9.33 µM with A2780 and greater than 10 µM on PLK1 T210D (h).

Consider `CN(C)C(=O)c1cc2cc(c1)Nc1nccc(n1)-c1cccc(c1)CNC(=O)[C@@H]1CCCN1C2` [Compound 35], for which the IC50 on GSK3β (h) was 0.204 µM; in the assay with U87-MG, 1.45 µM; with HCT-116, 1.32 µM; on PLK2 (h) it was greater than 10 µM; on PLK4 (h) it was 0.204 µM; at CDK1/CyclinB (h), 0.288 µM. Also, the IC50 with MDA-MB-231 was greater than 10 µM; in the assay on A2780, 3.39 µM; at PLK1 T210D (h) it was greater than 10 µM.

For `COc1ccc2cc1CN[C@@H](CO)C(=O)N(C)CCCN(C)c1ccc(cn1)-c1ccnc(n1)N2` [Compound 11], the IC50 on GSK3β (h) is 2.09 µM; with U87-MG, greater than 10 µM; in the assay with HCT-116 it was greater than 10 µM; on PLK2 (h) it was greater than 10 µM; at PLK4 (h) it was 0.933 µM; at CDK1/CyclinB (h) it was greater than 10 µM. The IC50 in the assay with MDA-MB-231, with A2780 and on PLK1 T210D (h) was greater than 10 µM each time.

Take `O=C1NCc2cccc(c2)-c2ccnc(n2)Nc2cc(ccc2Cl)CN2C[C@H](O)C[C@@H]12` [Compound 52]: the IC50 on GSK3β (h), in the assay with U87-MG, in the assay on HCT-116, at PLK2 (h), at PLK4 (h) and on CDK1/CyclinB (h) was greater than 10 µM in each case. In addition, the IC50 in the assay on MDA-MB-231, in the assay on A2780 and on PLK1 T210D (h) was greater than 10 µM each time.
